Experimental data as given in the supplement of paper PMC10331698.
± gives the standard deviation of the averaged measurements.

Key:
Experiment in all cases: level (log10 ratio to DMSO vehicle control); higher = higher biomarker level / cell amount than vehicle control
Conditions in all cases: in DMSO
[1] = compound: CNS(=O)(=O)C(F)(F)C(F)(F)C(F)(F)C(F)(F)C(F)(F)C(F)(F)C(F)(F)C(F)(F)F [N-Methylperfluorooctanesulfonamide]
Experimental: (§1)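 BioMAP Diversity Plus panel of 12 human primary cell co-culture systems (3C, 4H, LPS, SAg, BT, BF4T, BE3C, CASM3C, HDF3CGF, KF3CT, MyoF, Mphg). Compounds were added 1 h before stimulation and left for 24 h (MyoF 48 h; BT 72 h for soluble read-outs or 6 d for IgG). Biomarkers were read by ELISA, cytotoxicity by SRB, PBMC viability and proliferation by Alamar Blue. Each well value was divided by the mean of 8 DMSO control wells on the same plate and log10 transformed; duplicate blinded samples were tested at 4 concentrations.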

[2] = compound: O=P(O)(O)CCC(F)(F)C(F)(F)C(F)(F)C(F)(F)C(F)(F)C(F)(F)C(F)(F)C(F)(F)F [((Perfluorooctyl)ethyl)phosphonic acid]
Experimental: as §1

[3] = compound: O=C(O)C(F)(F)C(F)(F)C(F)(F)C(F)(F)C(F)(F)C(F)(F)C(F)(F)C(F)(F)C(F)(F)C(F)(F)C(F)(F)C(F)(F)F [Perfluorotridecanoic acid]
Experimental: as §1

1H,1H-Heptafluorobutanol = compound: OCC(F)(F)C(F)(F)C(F)(F)F [1H,1H-Heptafluorobutanol]
Experimental: as §1

[4] = compound: O=C(O)CCC(F)(F)C(F)(F)C(F)(F)C(F)(F)C(F)(F)F [2H,2H,3H,3H-Perfluorooctanoic acid]
Experimental: as §1

Perfluorohexanoic acid = compound: O=C(O)C(F)(F)C(F)(F)C(F)(F)C(F)(F)C(F)(F)F [Perfluorohexanoic acid]
Experimental: as §1

| Test System | level (log10) ([1]; 6700 nM) | level (log10) ([1]; 20000 nM) | level (log10) ([1]; 60000 nM) | level (log10) ([2]; 6700 nM) | level (log10) ([2]; 20000 nM) | level (log10) ([2]; 60000 nM) | level (log10) ([3]; 1500 nM) | level (log10) ([3]; 4400 nM) | level (log10) ([3]; 13000 nM) | level (log10) ([3]; 40000 nM) | level (log10) (1H,1H-Heptafluorobutanol; 6700 nM) | level (log10) (1H,1H-Heptafluorobutanol; 20000 nM) | level (log10) (1H,1H-Heptafluorobutanol; 60000 nM) | level (log10) ([4]; 6700 nM) | level (log10) ([4]; 20000 nM) | level (log10) ([4]; 60000 nM) | level (log10) (Perfluorohexanoic acid; 6700 nM) | level (log10) (Perfluorohexanoic acid; 20000 nM) | level (log10) (Perfluorohexanoic acid; 60000 nM) |
| --- | --- | --- | --- | --- | --- | --- | --- | --- | --- | --- | --- | --- | --- | --- | --- | --- | --- | --- | --- |
| LPS:CD106/VCAM-1 | -0.013 ± 0.038 | 0.0295 ± 0.018 | 0.03 ± 0.027 | -0.011 ± 0.017 | -0.0125 ± 0.0021 | -0.05 ± 0.0028 | -0.004 ± 0.0014 | -0.0315 ± 0.054 | -0.029 ± 0.052 | -0.08 ± 0.0057 | -0.0165 ± 0.0078 | 0.005 ± 0.0014 | 0.0035 ± 0.0021 | 0.006 ± 0.023 | 0.018 ± 0.033 | -0.016 ± 0.082 | -0.0025 ± 0.0035 | -0.0055 ± 0.0035 | 0.008 ± 0.0042 |
| LPS:SRB | -0.0005 ± 0.00071 | -0.03 ± 0.0042 | -0.0625 ± 0.039 | -0.01 ± 0.0042 | -0.0195 ± 0.011 | -0.08 ± 0.047 | -0.003 ± 0.014 | -0.011 ± 0.0014 | -0.008 ± 0.011 | 0.006 ± 0.021 | -0.0085 ± 0.0035 | 0.005 ± 0.0014 | -0.003 ± 0.0028 | -0.01 ± 0.0014 | -0.0115 ± 0.0035 | -0.0035 ± 0.0064 | -0.013 ± 0.0071 | -0.009 | -0.0065 ± 0.0078 |
| 3C:CXCL9/MIG | 0.001 ± 0.0014 | -0.0075 ± 0.011 | 0.022 ± 0.0057 | 0.006 ± 0.0057 | -0.0045 ± 0.005 | 0.0185 ± 0.0064 | 0.0055 ± 0.0035 | 0.0005 ± 0.00071 | 0.003 ± 0.0085 | 0.0035 ± 0.00071 | 0.001 ± 0.021 | 0.002 ± 0.014 | 0 ± 0.017 | -0.006 ± 0.013 | -0.007 ± 0.027 | -0.0075 ± 0.021 | -0.0065 ± 0.012 | -0.0045 ± 0.00071 | 0.0025 ± 0.012 |
| BT:sIL-17A | 0.151 ± 0.14 | -0.065 ± 0.0085 | -0.0925 ± 0.3 | 0.0985 ± 0.00071 | 0.132 ± 0.044 | 0.0985 ± 0.083 | -0.134 ± 0.0028 | -0.113 ± 0.014 | 0.155 ± 0.15 | -0.104 ± 0.11 | -0.145 ± 0.19 | -0.166 ± 0.005 | -0.0935 ± 0.25 | 0.0035 ± 0.021 | -0.199 ± 0.028 | -0.231 ± 0.099 | 0.009 ± 0.22 | 0.038 ± 0.075 | -0.086 ± 0.068 |
| 4H:CD87/uPAR | -0.012 ± 0.12 | -0.0565 ± 0.071 | -0.046 ± 0.044 | 0.018 ± 0.058 | -0.003 ± 0.024 | 0.102 ± 0.0064 | 0.0035 ± 0.028 | -0.03 ± 0.017 | -0.0175 ± 0.015 | -0.0515 ± 0.074 | -0.0055 ± 0.035 | 0.004 ± 0.071 | 0.032 ± 0.09 | -0.008 ± 0.04 | -0.0065 ± 0.03 | -0.062 ± 0.037 | 0.0025 ± 0.042 | -0.002 ± 0.011 | 0.0205 ± 0.039 |
| 4H:VEGFR2 | -0.0425 ± 0.032 | -0.096 ± 0.0085 | -0.0995 ± 0.00071 | -0.016 ± 0.033 | -0.024 ± 0.035 | 0.007 ± 0.0057 | 0.0375 ± 0.0078 | -0.0205 ± 0.037 | -0.0125 ± 0.1 | -0.257 ± 0.1 | 0.0085 ± 0.026 | -0.0015 ± 0.0035 | 0.003 ± 0.035 | 0.008 ± 0.011 | 0.02 ± 0.017 | 0.0155 ± 0.03 | -0.003 ± 0.021 | -0.009 ± 0.014 | -0.001 ± 0.024 |
| BT:B cell Proliferation | 0.006 ± 0.0028 | -0.007 ± 0.023 | -0.0195 ± 0.03 | 0.014 ± 0.021 | -0.0325 ± 0.044 | -0.136 ± 0.058 | -0.0035 ± 0.052 | 0.029 ± 0.016 | 0.01 ± 0.011 | 0.0265 ± 0.035 | 0.0265 ± 0.0078 | -0.0155 ± 0.026 | -0.016 ± 0.075 | 0.0515 ± 0.028 | 0.078 ± 0.059 | 0.05 ± 0.05 | -0.047 ± 0.048 | -0.0035 ± 0.042 | 0.0275 ± 0.063 |
| 4H:CD106/VCAM-1 | 0 ± 0.0014 | 0.015 ± 0.0042 | -0.0435 ± 0.032 | 0.011 ± 0.0099 | -0.0095 ± 0.016 | -0.002 ± 0.0028 | -0.028 ± 0.0071 | -0.065 ± 0.04 | -0.107 ± 0.0064 | -0.089 ± 0.018 | 0 ± 0.03 | 0.0325 ± 0.023 | 0.027 ± 0.048 | -0.0135 ± 0.0092 | -0.0325 ± 0.026 | -0.0405 ± 0.029 | -0.006 ± 0.028 | 0.0095 ± 0.00071 | 0.041 ± 0.045 |
| BF4T:CD90 | -0.006 ± 0.0042 | -0.005 | -0.0065 ± 0.0078 | 0.001 ± 0.0099 | 0.0035 ± 0.005 | 0.014 ± 0.021 | -0.0015 ± 0.016 | -0.002 ± 0.016 | -0.001 ± 0.013 | 0.005 ± 0.0014 | -0.0035 ± 0.012 | -0.0045 ± 0.021 | -0.0045 ± 0.0035 | -0.018 ± 0.011 | -0.019 ± 0.0014 | -0.02 ± 0.02 | -0.0045 ± 0.011 | -0.0005 ± 0.011 | -0.007 ± 0.011 |
| LPS:CD142/Tissue Factor | -0.0275 ± 0.016 | -0.0395 ± 0.016 | -0.074 ± 0.018 | -0.023 ± 0.0014 | -0.01 ± 0.0099 | 0.032 ± 0.033 | 0.0325 ± 0.08 | -0.026 ± 0.058 | 0.0025 ± 0.069 | 0.0325 ± 0.019 | 0.012 ± 0.05 | 0.015 ± 0.034 | -0.0125 ± 0.0078 | 0.0725 ± 0.018 | 0.063 ± 0.0028 | 0.0265 ± 0.037 | 0.0205 ± 0.021 | 0.0045 ± 0.011 | 0.015 ± 0.0071 |
| SAg:CD69 | -0.0325 ± 0.0064 | -0.0405 ± 0.022 | -0.0685 ± 0.053 | -0.01 ± 0.017 | -0.016 ± 0.05 | -0.006 ± 0.052 | -0.0075 ± 0.037 | -0.053 ± 0.03 | -0.0305 ± 0.025 | -0.0685 ± 0.0078 | -0.013 ± 0.017 | -0.0035 ± 0.016 | 0.02 ± 0.016 | -0.0265 ± 0.043 | -0.025 ± 0.038 | -0.0145 ± 0.028 | -0.0065 ± 0.00071 | -0.0115 ± 0.021 | -0.0125 ± 0.0092 |
| LPS:CD141/Thrombomodulin | 0.005 ± 0.0028 | 0.0475 ± 0.0092 | 0.056 ± 0.0014 | -0.02 ± 0.013 | -0.049 ± 0.0085 | 0.0065 ± 0.028 | 0.045 ± 0.016 | 0.0125 ± 0.0092 | 0.0335 ± 0.0035 | -0.001 ± 0.016 | 0.01 ± 0.013 | 0.003 ± 0.016 | -0.008 ± 0.011 | 0.0745 ± 0.043 | 0.048 ± 0.089 | 0.009 ± 0.088 | 0.0085 ± 0.012 | 0.0065 ± 0.026 | 0.007 ± 0.017 |
| BE3C:IL-1alpha | 0.0325 ± 0.005 | 0.042 ± 0.013 | 0.0695 ± 0.005 | -0.017 ± 0.016 | -0.019 ± 0.025 | 0.0085 ± 0.056 | 0.027 ± 0.04 | -0.0165 ± 0.0078 | 0.0035 ± 0.023 | 0.024 ± 0.0057 | 0.003 ± 0.011 | -0.0095 ± 0.022 | -0.0035 ± 0.018 | -0.0075 ± 0.0064 | -0.0125 ± 0.019 | -0.005 | 0.005 ± 0.0071 | -0.0115 ± 0.0035 | -0.002 ± 0.0042 |
| SAg:Proliferation | -0.0295 ± 0.026 | -0.0755 ± 0.0092 | -0.048 ± 0.1 | -0.023 ± 0.023 | -0.03 ± 0.0071 | -0.0345 ± 0.077 | -0.019 ± 0.047 | -0.0125 ± 0.005 | -0.066 ± 0.023 | -0.036 ± 0.031 | 0.009 ± 0.0042 | 0.008 ± 0.02 | 0.0125 ± 0.021 | -0.011 ± 0.017 | -0.0475 ± 0.067 | -0.115 | 0.0065 ± 0.011 | 0.003 ± 0.021 | 0.027 ± 0.0042 |
| BF4T:IL-1alpha | 0.0065 ± 0.0078 | 0.0005 ± 0.015 | 0.0285 ± 0.049 | -0.0165 ± 0.015 | -0.001 ± 0.0028 | 0.015 ± 0.02 | 0.016 ± 0.025 | -0.0195 ± 0.011 | -0.009 ± 0.02 | 0.017 ± 0.018 | -0.0125 ± 0.0092 | -0.016 | -0.007 ± 0.0042 | -0.0035 ± 0.0078 | -0.0065 ± 0.016 | 0.017 ± 0.021 | -0.001 ± 0.0042 | -0.0035 ± 0.012 | 0.007 ± 0.0042 |
| BF4T:tPA | 0.0145 ± 0.011 | 0.0325 ± 0.03 | 0.0515 ± 0.019 | 0.0055 ± 0.013 | 0.0645 ± 0.005 | 0.072 ± 0.054 | 0.025 ± 0.05 | -0.009 ± 0.017 | -0.0045 ± 0.015 | -0.0085 ± 0.018 | -0.0205 ± 0.00071 | -0.009 ± 0.013 | 0.0155 ± 0.037 | -0.014 ± 0.0014 | -0.023 ± 0.0085 | -0.0535 ± 0.042 | -0.0045 ± 0.0064 | -0.0035 ± 0.019 | 0.0055 ± 0.013 |
